The text below walks through data of paper PMC10967822, “Antimicrobial Indole-3-Carboxamido-Polyamine Conjugates Target Bacterial Membranes and Are Antibiotic Potentiators” (Biomolecules, 2024).

Converted amounts (≈) assume the structure as drawn.

Usually MIC stands for the lowest concentration found to suppress growth. The term IC50 denotes the concentration that inhibits the measured activity by half. Read a low IC50 as inhibition by little substance.

Data set [1] has as its system S. aureus ATCC 25923. Kind of data set: MIC, broth dilution, S. aureus. The class given is cell-based, Staphylococcus aureus. Particulars: Staphylococcus aureus, ATCC25923; S. aureus ATCC 25923, 18 h; read-out: MIC Sa. In general terms: Broth dilution looks for growth in wells or tubes with falling amounts of substance.
The subject of data set [2] is MRSA ATCC 43300. Kind of data set: MIC, broth microdilution (CO-ADD), MRSA. The class given is cell-based, methicillin-resistant S. aureus. Conditions: Staphylococcus aureus; MRSA ATCC 43300; top dose 32 µg/mL; read-out: MIC MRSA.
Data set [3] concerns P. aeruginosa ATCC 27853. Kind of data set: MIC, broth dilution, P. aeruginosa. The class given is cell-based, Pseudomonas aeruginosa. Conditions: Pseudomonas aeruginosa, ATCC27853; P. aeruginosa ATCC 27853, 18 h; read-out: MIC Pa.
In data set [4] the test system is E. coli ATCC 25922. Kind of data set: MIC, broth dilution, E. coli. The class given is cell-based, Escherichia coli. Particulars: Escherichia coli, ATCC25922; E. coli ATCC 25922, 18 h.
For data set [5], the system named is A. baumannii ATCC 19606. Kind of data set: MIC, broth microdilution (CO-ADD), A. baumannii. Particulars: Acinetobacter baumannii, ATCC19606, top dose 32 µg/mL. The class given is cell-based, Acinetobacter baumannii.
The subject of data set [6] is C. albicans ATCC 90028. Kind of data set: Antifungal MIC (CO-ADD), C. albicans. The class given is cell-based. Conditions: Candida albicans, ATCC90028, top dose 32 µg/mL. The procedure, abridged:
(§1)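 Yeast inocula prepared from YPD-agar colonies grown 3 days at 30 °C, diluted in YNB broth to 2.5 × 10^3 CFU/mL and incubated 36 h at 35 °C without shaking. C. albicans MIC read at OD530; C. neoformans MIC read at OD570–600 after 3 h with 0.006% resazurin.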

The test system of data set [7] is C. neoformans ATCC 208821. Nature of the data set: Antifungal MIC (CO-ADD), C. neoformans. Particulars: Cryptococcus neoformans, ATCC208821, top dose 32 µg/mL. The class given is cell-based. The procedure, abridged:
as §1

Data set [8] concerns P. aeruginosa ATCC 27853. Kind of data set: Doxycycline potentiation against P. aeruginosa. Conditions: doxycycline at 2 µg/mL (4.5 µM); for Dox/Pa fold-change (intrinsic MIC / combination MIC): P. aeruginosa ATCC 27853; for Dox/Pa: concentration required to restore doxycycline activity (combination MIC): P. aeruginosa ATCC 27853, mean n = 3. The class given is cell-based, Pseudomonas aeruginosa. The text has this:
(§2) These measurements were independently repeated in triplicate.

Data set [9] relates to E. coli ATCC 25922. Nature of the data set: Erythromycin potentiation against E. coli. The class given is cell-based, Escherichia coli. Particulars: erythromycin at 2 µg/mL (2.7 µM); for Erythro/Ec fold-change (intrinsic MIC / combination MIC): E. coli; for Erythro/Ec: concentration required to restore erythromycin activity (combination MIC): mean n = 3.
Excerpt: as §2

Data set [10] is described as follows: Cytotoxicity assay (resazurin). The class given is cell-based. Conditions: human, HEK293 cells, mean n = 2. Background: Alamar Blue is a resazurin reagent that responds to reducing activity.
The test system of data set [11] is human red blood cells. Kind of data set: Hemolytic assay. The class given is cell-based. Conditions: 10% hemolytic activity, mean n = 2. The method, boiled down:
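Washed human erythrocytes (0.5 × 10^8 cells/mL in 0.9% NaCl) were incubated with compounds for 1 h at 37 °C. Haemoglobin release was read as supernatant OD405. HC10 and HC50 came from sigmoidal dose–response fits.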

Data set [12] concerns K. pneumoniae ATCC 700603. Kind of data set: MIC, broth microdilution (CO-ADD), K. pneumoniae. Conditions: top dose 32 µg/mL.

Regarding `Cc1cccc2c(C(=O)NCCCNCCCCCCNCCCNC(=O)c3c[nH]c4c(C)cccc34)c[nH]c12` [Compound 18b], the minimal inhibitory concentration (MIC) in data set [1] is 129 µM (≈ 70.3 µg/mL); in data set [2] it was more than 41 µM; in data set [3], more than 259 µM; in data set [4] it was 129 µM (≈ 70.3 µg/mL); in data set [5] it was more than 41 µM; in data set [6] it was more than 41 µM. The MIC in data set [7] is not above 0.32 µM. The “Dox/Pa fold-change (intrinsic MIC / combination MIC)” value in data set [8] was more than 8 fold. For the same molecule, the “Dox/Pa: concentration required to restore doxycycline activity (combination MIC)” value (“Dox/Pa: concentration required” for short) in [8] is on record as 32.4 µM. For the same molecule, the “Erythro/Ec fold-change (intrinsic MIC / combination MIC)” value in data set [9] worked out at 4 fold. Moreover, in data set [9], the “Erythro/Ec: concentration required to restore erythromycin activity (combination MIC)” value (“Erythro/Ec: concentration required” for short) was determined as 32.4 µM. Besides, in data set [10], the concentration for half-maximal inhibition (IC50) at 20 h was more than 41 µM. Besides, the “Hemolysis HC10” value in [11] is more than 41 µM. For the same molecule, the “MIC Kp” value in data set [12] was more than 41 µM.

Regarding `Cc1cccc2c(C(=O)NCCCNCCCCCCCNCCCNC(=O)c3c[nH]c4c(C)cccc34)c[nH]c12` [Compound 18c], the MIC in data set [1] is more than 254 µM; in data set [2], not above 0.32 µM; in [3], 254 µM (≈ 142 µg/mL); in [4], more than 254 µM; in data set [5], more than 41 µM; in data set [6], more than 41 µM. This molecule had a minimum inhibitory concentration (MIC) in data set [7] not above 0.32 µM. Also, the “Dox/Pa fold-change (intrinsic MIC / combination MIC)” value in data set [8] was 16 fold. The “Dox/Pa: concentration required” value in data set [8] amounted to 15.9 µM. In addition, the “Erythro/Ec fold-change (intrinsic MIC / combination MIC)” value in data set [9] is 1 fold. Besides, the “Erythro/Ec: concentration required” value in data set [9] was more than 254 µM. Further, the half-inhibitory concentration (IC50) at 20 h in data set [10] was more than 41 µM. In addition, in [11], the “Hemolysis HC10” value was more than 41 µM. For the same molecule, the “MIC Kp” value in [12] is on record as more than 41 µM.

Regarding `Cc1cccc2c(C(=O)NCCCNCCCCCCCCNCCCNC(=O)c3c[nH]c4c(C)cccc34)c[nH]c12` [Compound 18d], the minimal inhibitory concentration (MIC) in data set [1] is more than 250 µM; in [2] it was not above 0.31 µM; in [3], 250 µM (≈ 143 µg/mL); in [4], more than 250 µM; in data set [5], more than 40 µM; in data set [6] it was more than 40 µM. This molecule also returned an MIC in data set [7] not above 0.31 µM. For the same molecule, in data set [8], the “Dox/Pa fold-change (intrinsic MIC / combination MIC)” value was determined as 8 fold. Also, the “Dox/Pa: concentration required” value in data set [8] stood at 31.2 µM. Further, the “Erythro/Ec fold-change (intrinsic MIC / combination MIC)” value in [9] stood at 1 fold. For the same molecule, the “Erythro/Ec: concentration required” value in data set [9] is 250 µM. Moreover, in data set [10], the half-inhibitory concentration (IC50) at 20 h is more than 40 µM. Moreover, the “Hemolysis HC10” value in data set [11] is listed as more than 40 µM. For the same molecule, the “MIC Kp” value in data set [12] is reported as more than 40 µM.

In the case of `Cc1cccc2c(C(=O)NCCCNCCCCCCCCCCNCCCNC(=O)c3c[nH]c4c(C)cccc34)c[nH]c12` [Compound 18e], the MIC in [1] is 30.2 µM (≈ 18.1 µg/mL); in data set [2], not above 0.3 µM; in data set [3], 60.3 µM (≈ 36.2 µg/mL); in [4], 30.2 µM (≈ 18.1 µg/mL); in data set [5], more than 39 µM; in data set [6], 4.83 µM (≈ 2.9 µg/mL). The molecule also returned a minimal inhibitory concentration (MIC) in [7] not above 0.3 µM. The “Dox/Pa fold-change (intrinsic MIC / combination MIC)” value in [8] was found to be 4 fold. The “Dox/Pa: concentration required” value in data set [8] was found to be 15.1 µM. Further, the “Erythro/Ec fold-change (intrinsic MIC / combination MIC)” value in data set [9] turned out to be 2 fold. Moreover, in [9], the “Erythro/Ec: concentration required” value is listed as 15.1 µM. The molecule further displayed a half-inhibitory concentration (IC50) at 20 h in data set [10] of more than 39 µM. In addition, in data set [11], the “Hemolysis HC10” value is more than 39 µM. In data set [12], the “MIC Kp” value was more than 39 µM.

Consider `Cc1cccc2c(C(=O)NCCCNCCCCCCCCCCCCNCCCNC(=O)c3c[nH]c4c(C)cccc34)c[nH]c12.O=C(O)C(F)(F)F.O=C(O)C(F)(F)F` [Compound 18f], for which the MIC in [1] was 117 µM; in data set [2] it was not above 0.29 µM; in [3] it was 117 µM; in data set [4], 117 µM; in data set [5], 9.33 µM; in data set [6], not above 0.29 µM. The molecule also showed a minimum inhibitory concentration (MIC) in [7] not above 0.29 µM. Moreover, the “Dox/Pa fold-change (intrinsic MIC / combination MIC)” value in [8] was determined as 4 fold. Further, the “Dox/Pa: concentration required” value in data set [8] is 29.2 µM. Besides, the “Erythro/Ec fold-change (intrinsic MIC / combination MIC)” value in [9] was 1 fold. Further, in data set [9], the “Erythro/Ec: concentration required” value was 116.7 µM. The same molecule displayed an IC50 at 20 h in data set [10] of more than 37 µM. Besides, in [11], the “Hemolysis HC10” value is more than 37 µM. In addition, the “MIC Kp” value in data set [12] is recorded as more than 37 µM.
